Key:
[1] = heparin-agarose column, NaCl gradient elution; type: binding; settings: NaCl gradient 0.125M up to 1M; 50 mM Tris
Experimental: A mutant IL-8 gene is synthesized in which the ELR sequence at positions 4-6 (Seq. ID No. 1) is modified to glu-leu-gln (ELQ). The modified gene is expressed in E. coli by standard techniques well known to those skilled in the art and the protein product is extracted from the lysed cell pellet with 6M guanidine-HCl. The extract is dialyzed against 50 mM Tris, 0.125M NaCl and passed over a heparin-agarose column. […] The mutant chemokine is eluted from the column at about 0.6-0.7M salt.

neutrophils = experiment: activation or attraction of neutrophils; type: cell-based
[2] = affinity coelectrophoresis of ELQ-IL-8 with heparin; type: binding; settings: compared with native IL-8
Source text: Commercial heparin (porcine mucosa, Sigma Biochemical) is radioactively labeled by first incorporating tyramine at the reducing end of the chains and then introducing radioactive iodine using the chloramine T reaction, a procedure well known in the art. The heparin is size fractionated on a Sephadex G-100 column (Pharmacia) and the last 10% of the heparin to elute is selected and utilized for the labeling. The labeled low molecular weight heparin is then bound to varying concentrations of IL-8 under equilibrium conditions using the technique of affinity coelectrophoresis, as described by Lee and Lander, Proc. Nat. Acad. Sci., U.S.A. (1991) 88, 2768-2772. Briefly, a horizontal 1% agarose gel is poured, using low melting point agarose, that contains nine rectangular wells of equal dimensions (about 3×10 mm). The buffer used comprises 125 mM sodium acetate, 50 mM MOPSO, pH 7.0. 0.5% 3-[3-cholamidopropyl) dimethylammonio]-1-propanesulfonate (CHAPS) may be used in the buffer to prevent adventitious binding of protein to vessel walls. The wells in the horizontal gel are subsequently filled with a requisite amount of 1% agarose which contains varying concentrations of IL-8 ranging from about 80 nM up to about 80 μM. The IL-8 may be produced by recombinant means as is well known in the art or may alternatively be produced as a synthetic peptide. […]

[3] = affinity coelectrophoresis of ELQ-IL-8 with heparan sulfate; type: binding; settings: compared with native IL-8
[4] = tested on: "Glyceptor" sequences on post-capillary endothelium of human dermal tissue; experiment: binding of 125I-labeled chemokine to human dermal tissue, microscopic autoradiography; settings: for binding of 125I-labeled chemokine to vasculature / post-capillary endothelium: microscopic autoradiography
Experimental: A sample of human dermal tissue of about 1 mm^3 is incubated with ^125 I-labeled human IL-8 as described in the art (see, e.g., Rot, A. (1992) Cytokine 4, 347, the disclosure of which is incorporated herein by reference).

IL-8 = IL-8 mediated inflammation, influx of polymorphonuclear leukocytes into the peritoneal cavity; type: in vivo, mouse; settings: protamine chloride 100-250 mg i.v. (tail vein), IL-8 i.p.
Experimental: Typically about 50-100 μl of a sample of 1-2 μg of HAHBS suspended in phosphate buffered saline (PBS) or alternatively an equivalent amount of PBS alone is injected into the tail vein of a mouse at the same time that 1 μg of IL-8 is introduced into the peritoneal cavity. After 3 hours the peritoneal cavity is lavaged and the infiltrated cells are counted.
After 3 hours the peritoneal cavity is lavaged and the infiltrated cells are counted.
Typically a dose of 100-250 mg is suspended in PBS and injected into the tail vein of the mice. IL-8 is again injected into the peritoneal cavity.

[5] = tested on: "Glyceptor" sequence-effector molecule interactions; experiment: interference with "Glyceptor" sequence-effector molecule interactions; type: binding

Compound: ELQ-IL-8: mutant IL-8 in which the ELR sequence at positions 4-6 (Seq. ID No. 1) is modified to glu-leu-gln (ELQ)
- salt concentration eluting from heparin-agarose column [1]: 0.6 to 0.7 M
- activation or attraction of neutrophils (neutrophils): not able to activate or attract neutrophils
- binding to heparin [2]: behaves in a similar fashion to native IL-8
- binding to heparan sulfate [3]: behaves in a similar fashion to native IL-8
- binding of labeled native IL-8 to vasculature in presence of ELQ-IL-8 ([4]; 10 fold excess over radiolabeled native IL-8, ex vivo): substantially reduced
- binding of 125I-labeled chemokine to vasculature / post-capillary endothelium [4]: Binding occurs in the same pattern as observed with native IL-8

Compound: protamine chloride
- inhibition of neutrophil influx (IL-8): significant inhibition of neutrophil influx
- toxicity (toxicity of protamine): generally toxic agent

Compound: IL-8: 125I-labeled human IL-8
- binding of 125I-labeled chemokine to vasculature / post-capillary endothelium [4]: binds preferentially to certain regions of the vasculature

Compound: Cc1ccc(C(=O)Nc2ccc(S(=O)(=O)O)c3cc(S(=O)(=O)O)cc(S(=O)(=O)O)c23)cc1NC(=O)c1cccc(NC(=O)Nc2cccc(C(=O)Nc3cc(C(=O)Nc4ccc(S(=O)(=O)O)c5cc(S(=O)(=O)O)cc(S(=O)(=O)O)c45)ccc3C)c2)c1 [suramin]
- interference with "Glyceptor" sequence-effector molecule interactions [5]: interferes with "Glyceptor" sequence-effector molecule interactions
